Data published in PMC6271245, “Discovery of Gramine Derivatives That Inhibit the Early Stage of EV71 Replication in Vitro” (Molecules, 2014).
Values after ≈ are worked out from the molar mass of the structure shown.

Assays:
Assay type in all cases: cell-based
Enterovirus 71 (EV71) [1] = experiment: Inhibition of EV71-induced cytopathogenicity (CPE) in Vero cells, MTT; settings: for EC50: Enterovirus A, read-out: EC50 (µg/mL) Vero; for EC50 / EC50 (µg/mL) Vero: concentration for 50% protection from virus-induced cytopathogenicity, Vero cells, 100 TCID50 EV71, 48 h, MTT, mean ± SD of three experiments
Method: (§1) The antiviral activities of gramine and its derivatives against EV71 based on inhibition of virus-induced cytopathogenicity effects (CPEs) in African green monkey kidney cells (Vero) and rhabdomyosarcoma cells (RD) were examined. The cytotoxic effects were also evaluated. The inhibitory activities expressed as half maximal effective concentration (EC50) values and selectivity indexes (SI) for the target compounds are presented in Table 1, and the dose-dependent antiviral effects are shown in Figure 1A.
Figure 1 Gramine and its synthetic derivatives inhibited virus-induced CPE. (A) Vero cells were infected with 100 TCID50 of EV71 mixed with serial dilutions of tested compounds for 1.5 h at 37 °C; the inoculum was aspirated and cells were incubated with DMEM/tested compounds at 37 °C, 5% CO2 for 48 h pi. The viability of the cells was determined with an MTT assay; (B) Morphology image of Vero and RD cells treated with compounds 4a, 4i, 4r, and 4s for 48 h pi. (magnification, 20×).
(§2) The activity of compounds against EV71 was determined based on the inhibition of virus-induced cytopathogenicity effects (CPEs) in acutely infected cells. Vero and RD cells grown to 90% confluency in 96-well dishes were washed with phosphate buffered saline (PBS) and infected with 100 TCID50 of EV71 mixed with serial dilutions of tested compounds for 1.5 h at 37 °C. The inoculum was aspirated and cells were incubated with DMEM and test compounds at 37 °C, 5% CO2 for 48 h. The CPEs were observed microscopically and the viability of the cells was determined with a 3-(4,5-dimethylthiazol-2-yl)-2,5-diphenyltetrazolium bromide (MTT) assay. The concentrations required for the test compounds to achieve 50% protection from virus-induced cytopathogenicity (EC50) were determined. Adverse effects of these compounds on the host cells were also assessed by means of the MTT-method; by exposing uninfected cells to various concentrations of test compounds for 48 h at 37 °C, the viability of the cells was detected. The 50% cell cytotoxic concentrations (CC50) of compounds were calculated with the SPSS software (SPSS, Chicago, IL, USA). Selectivity indexes were calculated as the ratio of CC50: EC50.
(§3) Cell viability was assessed by an MTT assay, which functions based on the reduction of a MTT into formazan dye by active mitochondria. The cells were treated with 100 µL of MTT (1 mg/mL, Sigma, St. Louis, MO, USA) and incubated at 37 °C for 4 h. The reaction was blocked by DMSO and measured in a microplate reader (Bio-Tek Instruments, Winooski, VT, USA) at 492 nm. The untreated control was arbitrarily set as 100%.

Enterovirus 71 (EV71) [2] = experiment: Inhibition of EV71-induced cytopathogenicity (CPE) in RD cells, MTT; settings: concentration for 50% protection from virus-induced cytopathogenicity, RD cells, 100 TCID50 EV71, 48 h, MTT; for EC50: Enterovirus A, read-out: EC50 (µg/mL) RD
Method: as §1, §2, §3

[3] = Cytotoxicity on uninfected Vero cells, MTT; settings: African green monkey
Method: as §1, §2, §3

[4] = Cytotoxicity on uninfected RD cells, MTT; settings: human, concentration reducing cell viability by 50%
Method: Human RD cells and Vero cells were maintained in Dulbecco’s modified Eagle’s medium (Gibco-Invitrogen, Carlsbad, CA, USA) supplemented with 10% fetal bovine serum (FBS; Gibco), 100 U/mL of penicillin and streptomycin, and 2 mM L-glutamine. Enterovirus 71 (EV71) was kindly provided by Zhanqiu Yang (Institute of Medical Virology, School of Medicine, Wuhan University, China) and propagated in RD cell lines. The virus titer was determined by the standard method of median tissue culture infective dose (TCID50) on RD cells.
as §2, §3

[5] = concentration reducing cell viability by 50%, uninfected Vero cells, 48 h, MTT, read-out: CC50 (µg/mL) Vero

SMILES	EC50 (Enterovirus 71 (EV71) [1])	EC50 (Enterovirus 71 (EV71) [2])	CC50 at 48 h [3, 5]	CC50 at 48 h [4]	EC50 (µg/mL) RD (Enterovirus 71 (EV71) [2])	EC50 (µg/mL) Vero (Enterovirus 71 (EV71) [1])	anti-EV71 activity (Enterovirus 71 (EV71) [1]; inhibition of EV71-induced CPEs compared with virus control)	CC50 at 48 h [3]
Clc1ccccc1C(Nc1ccccn1)c1c[nH]c2ccccc12 (centres unmarked) [Compound 4b]	5.1 ± 2.7 µg/mL (≈ 15.3 µM)	7.4 ± 1.1 µg/mL (≈ 22.2 µM)	18.6 ± 1.4 µg/mL (≈ 55.7 µM)	22.8 ± 1.7 µg/mL (≈ 68.3 µM)				
Clc1ccc(C(Nc2ccccn2)c2c[nH]c3ccccc23)cc1 (centres unmarked) [Compound 4c]	5.6 ± 1.3 µg/mL (≈ 16.8 µM)	6.7 ± 0.8 µg/mL (≈ 20.1 µM)	22.4 ± 3.6 µg/mL (≈ 67.1 µM)	24.6 ± 3.5 µg/mL (≈ 73.7 µM)				
Fc1ccccc1C(Nc1ccccn1)c1c[nH]c2ccccc12 (centres unmarked) [Compound 4d]	9.2 ± 2.1 µg/mL (≈ 29 µM)	5.8 ± 1.4 µg/mL (≈ 18.3 µM)	37.8 ± 5.8 µg/mL (≈ 119 µM)	28 ± 5.2 µg/mL (≈ 88.2 µM)				
Fc1ccc(C(Nc2ccccn2)c2c[nH]c3ccccc23)cc1 (centres unmarked) [Compound 4e]	7.3 ± 2.6 µg/mL (≈ 23 µM)	6.2 ± 2.8 µg/mL (≈ 19.5 µM)	40.7 ± 2.5 µg/mL (≈ 128 µM)	29.5 ± 3.3 µg/mL (≈ 93 µM)				
Cn1cc(C(Nc2ccccn2)c2ccccc2Cl)c2ccccc21 (centres unmarked) [Compound 4f]	14.4 ± 3.2 µg/mL (≈ 41.4 µM)		86.4 ± 7.4 µg/mL (≈ 248 µM)	44 ± 5.1 µg/mL (≈ 126 µM)	— (less than 50% inhibition)			
Cn1cc(C(Nc2ccccn2)c2ccc(Cl)cc2)c2ccccc21 (centres unmarked) [Compound 4g]	4.9 ± 0.7 µg/mL (≈ 14.1 µM)	4.9 ± 1.2 µg/mL (≈ 14.1 µM)	38.6 ± 5.7 µg/mL (≈ 111 µM)	32 ± 1.8 µg/mL (≈ 92 µM)				
Cn1cc(C(Nc2ccccn2)c2ccccc2F)c2ccccc21 (centres unmarked) [Compound 4h]	10.5 ± 2.1 µg/mL (≈ 31.7 µM)	11.2 ± 4.6 µg/mL (≈ 33.8 µM)	89.3 ± 12.6 µg/mL (≈ 269 µM)	52.2 ± 8.3 µg/mL (≈ 158 µM)				
FC(F)(F)c1ccc(C(Nc2ccccn2)c2c[nH]c3ccccc23)cc1 (centres unmarked) [Compound 4j]	8.7 ± 2.9 µg/mL (≈ 23.7 µM)	8.3 ± 3.5 µg/mL (≈ 22.6 µM)	15.8 ± 3.3 µg/mL (≈ 43 µM)	17.8 ± 2.6 µg/mL (≈ 48.5 µM)				
Cn1cc(C(Nc2ccccn2)c2ccc(C(F)(F)F)cc2)c2ccccc21 (centres unmarked) [Compound 4k]	13.2 ± 1.3 µg/mL (≈ 34.6 µM)	9.8 ± 3.4 µg/mL (≈ 25.7 µM)	18.5 ± 4.8 µg/mL (≈ 48.5 µM)	27.6 ± 8.3 µg/mL (≈ 72.4 µM)				
c1ccc(NC(c2ccccn2)c2c[nH]c3ccccc23)nc1 (centres unmarked) [Compound 4l]			96.2 ± 15.5 µg/mL (≈ 320 µM)	65.2 ± 9.1 µg/mL (≈ 217 µM)	— (less than 50% inhibition)	— (less than 50% inhibition)		
Cn1cc(C(Nc2ccccn2)c2ccccn2)c2ccccc21 (centres unmarked) [Compound 4m]			> 200 µg/mL	> 200 µg/mL	— (less than 50% inhibition)	— (less than 50% inhibition)		
c1ccc(NC(c2ccncc2)c2c[nH]c3ccccc23)nc1 (centres unmarked) [Compound 4n]			121 ± 20.5 µg/mL (≈ 402 µM)	> 200 µg/mL	— (less than 50% inhibition)	— (less than 50% inhibition)		
Cn1cc(C(Nc2ccccn2)c2ccncc2)c2ccccc21 (centres unmarked) [Compound 4o]	16.9 ± 1.5 µg/mL (≈ 53.8 µM)	9.5 ± 1.7 µg/mL (≈ 30.2 µM)	72.8 ± 18.8 µg/mL (≈ 232 µM)	39.2 ± 11.6 µg/mL (≈ 125 µM)				
Clc1ccccc1C(Nc1nc2ccccc2s1)c1c[nH]c2ccccc12 (centres unmarked) [Compound 4p]	2.1 ± 0.7 µg/mL (≈ 5.39 µM)	3.2 ± 0.4 µg/mL (≈ 8.21 µM)	6.6 ± 1.4 µg/mL (≈ 16.9 µM)	11.7 ± 4.6 µg/mL (≈ 30 µM)				
Fc1ccccc1C(Nc1nc2ccccc2s1)c1c[nH]c2ccccc12 (centres unmarked) [Compound 4q]	1.8 ± 1.1 µg/mL (≈ 4.82 µM)	2.7 ± 1.2 µg/mL (≈ 7.23 µM)	10.8 ± 2.5 µg/mL (≈ 28.9 µM)	14.5 ± 3.6 µg/mL (≈ 38.8 µM)				
Fc1ccc(C(c2c[nH]c3ccccc23)n2cccn2)cc1 (centres unmarked) [Compound 4t]	1.9 ± 0.6 µg/mL (≈ 6.52 µM)	2.6 ± 0.8 µg/mL (≈ 8.92 µM)	10.5 ± 2.4 µg/mL (≈ 36 µM)	12.6 ± 3.5 µg/mL (≈ 43.3 µM)				
Fc1ccc(C(c2c[nH]c3ccccc23)n2cncn2)cc1 (centres unmarked) [Compound 4u]	2.3 ± 0.3 µg/mL (≈ 7.87 µM)	3.1 ± 1.3 µg/mL (≈ 10.6 µM)	4.9 ± 0.6 µg/mL (≈ 16.8 µM)	6.8 ± 2.5 µg/mL (≈ 23.3 µM)				
CN(C)Cc1c[nH]c2ccccc12 [Gramine]				85 ± 16.3 µg/mL (≈ 488 µM)	— (less than 50% inhibition)	— ^d (less than 50% inhibition)	not observed	101 ± 5.6 µg/mL (≈ 582 µM)
NC(=O)c1ncn([C@@H]2O[C@H](CO)[C@@H](O)[C@H]2O)n1 [ribavirin, reference compound]	44.6 ± 13.5 µg/mL (≈ 183 µM)	32.1 µg/mL (≈ 131 µM)		436 µg/mL (≈ 1780 µM)				> 500 µg/mL
